The test system of data set [1] is Tagia sp. To be noted: chronic/long-term; duration: 28 days; reproduction.
For data set [2] the following is noted: short-term; duration: 28 days; reproduction.
The test system of data set [3] is Typhlodromus pyri. As to the kind of experiment: LR50; higher = less toxic. To be noted: not reported; mortality.
The subject of data set [4] is Aphidius rhopalosiphi. Nature of the data set: LR50; higher = less toxic. The following applies: not reported; mortality.
The subject of data set [5] is Oncorhynchus mykiss. To be noted: acute; duration: 96 hours; mortality.
Data set [6] has as its system Apis mellifera. To be noted: acute, mortality.
The test system of data set [7] is Daphnia magna.
Data set [8] relates to Colinus virginianus. The following applies: chronic.

Where only a bound is given, the exact number is not on record here.

As for `[Cl][Cu][Cl]` [Copper(II) chloride], the NOEC came to 8.4 mg/kg in data set [1] and 16.2 mg/kg-day in data set [2].
As for `[Cu+].[Cu+].[O-2]` [Cuprous oxide], the figures for the LR50 in data set [3] and in data set [4] were above 26100 g/ha and 39200 g/ha, respectively. The 50% lethal concentration (LC50) (commonly the concentration lethal to half of the exposed cells or organisms) in data set [5] was determined as 0.207 µg/mL.
In the case of `[Cl-].[Cu+2].[Cu+2].[OH-].[OH-].[OH-]` [Dicopper chloride trihydroxide], in data set [3], the LR50 was above 14900 g/ha. For the same compound, the LD50 in data set [6] (dermal) was 44.3 µg/piece; in data set [6] (oral, unspecified), 12.1 µg/piece. In addition, the NOEC in data set [7] (chronic/long-term, duration: 21 days, reproduction) worked out at 0.0076 mg/L.
On to `O.O.[Cu]` [Copper hydroxide (Cu(OH)2)], for which the LR50 in data set [3] was above 14900 g/ha. Further, the LD50 in data set [6] (dermal) was found to be 44.5 µg/piece. For the same compound, in data set [7] (acute, duration: 48 hours, mortality), the median lethal concentration (LC50) was found to be 0.0266 µg/mL. The NOEL in data set [8] worked out at 5.05 mg/kg-day.
